The source made the active and inactive calls. No cut-off for these calls is given here.
Assays:
SET-2 [1] = test: Induction of cell cycle arrest in human SET2 cells assessed as accumulation at G0/G1 phase incubated for 24 hrs by propidium iodide staining based flow cytometry; type: functional; conditions: dose 10-160 nM
[2] = molecular target: Tyrosine-protein kinase JAK2 (Homo sapiens, UniProt O60674); test: Inhibition of recombinant human JAK2 (808 to end residues) KTFCGTPEYLAPEVRREPRILSEEEQEMFRDFDYIADWC as substrate measured after 40 mins in presence of [gamm33P]ATP by scintillation counting method
[3] = molecular target: Receptor-type tyrosine-protein kinase FLT3 (Homo sapiens, UniProt P36888, D835Y); test: Inhibition of recombinant human FLT3 D835Y mutant (564 to end residues) using EAIYAAPFAKKK as substrate at 40 mins in presence of [gamma-33ATP] by scintillation counting based radiometry assay
[4] = Selectivity index, ratio of IC50 for inhibition of human JAK1 (866 to end residues) to IC50 for inhibition of recombinant human JAK2 (808 to end residues)
[5] = Selectivity index, ratio of IC50 for inhibition of recombinant human FLT3 D835Y mutant (564 to end residues) to IC50 for inhibition of recombinant human JAK2 (808 to end residues)
L02 = test: Cytotoxicity against human L02 cells assessed as reduction in cell viability incubated for 72 hrs by MTT assay; type: cell-based; conditions: L02, 72 h
[6] = Elimination half life in male Sprague-Dawley rat at 5 mg/kg, po administered via gavage measured upto 24 hrs by LC/MS/MS analysis; type: ADME, organism-based; conditions: in vivo, read-out: beta t1/2 (converted)
[7] = Apparent clearance in Sprague-Dawley rat at 5 mg/kg, po administered via gavage measured upto 24 hrs by LC/MS/MS analysis; type: ADME, organism-based; conditions: in vivo, read-out: CL(app) (converted)
[8] = Tmax in male Sprague-Dawley rat at 5 mg/kg, iv administered […] measured upto 24 hrs by LC/MS/MS analysis; type: ADME, organism-based; conditions: in vivo
SET-2 [9] = test: Antitumor activity against human SET2 cells xenografted in NOD/SCID mouse assessed as tumor growth inhibition at 15 mg/kg, po qd administered for 16 days and measured every 2 days relative to control; type: functional; conditions: SET-2, po, 384 h, time 16 day, read-out: TGI
SET-2 [10] = test: Antitumor activity against human SET2 cells xenografted in NOD/SCID mouse assessed as tumor growth inhibition at 60 mg/kg, po qd administered for 16 days and measured every 2 days relative to control; type: functional; conditions: SET-2, po, 384 h, time 16 day, read-out: TGI
[11] = Toxicity in NOD/SCID mouse xenografted with human SET2 cells assessed as animal death at 15 to 60 mg/kg, po qd administered for 16 days and measured after 36 days; type: organism-based; conditions: in vivo, 864 h, dose 15-60 mg/kg, time 36 day
SET-2 [12] = test: Induction of apoptosis in human SET-2 cells assessed as necrotic cells at 0.05 uM incubated for 24 hrs by Annexin V/PI staining based flow cytometric analysis (reference value: 0.78%); type: functional
SET-2 [13] = test: Induction of apoptosis in human SET-2 cells assessed as late apoptotic cells at 0.05 uM incubated for 24 hrs by Annexin V/PI staining based flow cytometric analysis (reference value: 1.52%); type: functional
SET-2 [14] = test: Induction of apoptosis in human SET-2 cells assessed as live cells at 0.05 uM incubated for 24 hrs by Annexin V/PI staining based flow cytometric analysis (reference value: 96.23 %); type: functional
SET-2 [15] = test: Induction of apoptosis in human SET-2 cells assessed as necrotic cells at 0.4 uM incubated for 24 hrs by Annexin V/PI staining based flow cytometric analysis (reference value: 0.78%); type: functional
SET-2 [16] = test: Induction of apoptosis in human SET-2 cells assessed as early apoptotic cells at 0.4 uM incubated for 24 hrs by Annexin V/PI staining based flow cytometric analysis (reference value: 1.47 %); type: functional
SET-2 [17] = test: Induction of apoptosis in human SET-2 cells assessed as live cells at 0.8 uM incubated for 24 hrs by Annexin V/PI staining based flow cytometric analysis (reference value: 96.23 %); type: functional
SET-2 [18] = test: Induction of apoptosis in human SET-2 cells assessed as early apoptotic cells at 0.8 uM incubated for 24 hrs by Annexin V/PI staining based flow cytometric analysis (reference value: 1.47 %); type: functional
SET-2 [19] = test: Induction of apoptosis in human SET-2 cells assessed as live cells at 1.6 uM incubated for 24 hrs by Annexin V/PI staining based flow cytometric analysis (reference value: 96.23 %); type: functional
SET-2 [20] = test: Induction of apoptosis in human SET-2 cells assessed as early apoptotic cells at 1.6 uM incubated for 24 hrs by Annexin V/PI staining based flow cytometric analysis (reference value: 1.47 %); type: functional
[21] = molecular target: Receptor-type tyrosine-protein kinase FLT3 (Homo sapiens) (UniProt P36888); test: Inhibition of FLT3 in human SET2 cells assessed as decrease in FLT3 phosphorylation at 1 to 1000 nM after 2 hrs by Western blot analysis; type: cell-based; conditions: dose 1-1000 nM
[22] = molecular target: Receptor-type tyrosine-protein kinase FLT3 (Homo sapiens) (UniProt P36888); test: Inhibition of FLT3 in human SET2 cells assessed as decrease in AKT phosphorylation at 1 to 1000 nM after 2 hrs by Western blot analysis; type: cell-based; conditions: dose 1-1000 nM
[23] = molecular target: Signal transducer and activator of transcription 3 (Mus musculus) (UniProt P42227); test: Inhibition of STAT3 phosphorylation in mouse BAF3 cells at 1000 nM after 2 hrs by Western blot analysis; type: cell-based
[24] = molecular target: T1, Signal transducer and activator of transcription 1 (Mus musculus) (UniProt P42225); test: Inhibition of STAT1 phosphorylation in mouse BAF3 cells at 1000 nM after 2 hrs by Western blot analysis; type: cell-based
T1 sequence (whole entry): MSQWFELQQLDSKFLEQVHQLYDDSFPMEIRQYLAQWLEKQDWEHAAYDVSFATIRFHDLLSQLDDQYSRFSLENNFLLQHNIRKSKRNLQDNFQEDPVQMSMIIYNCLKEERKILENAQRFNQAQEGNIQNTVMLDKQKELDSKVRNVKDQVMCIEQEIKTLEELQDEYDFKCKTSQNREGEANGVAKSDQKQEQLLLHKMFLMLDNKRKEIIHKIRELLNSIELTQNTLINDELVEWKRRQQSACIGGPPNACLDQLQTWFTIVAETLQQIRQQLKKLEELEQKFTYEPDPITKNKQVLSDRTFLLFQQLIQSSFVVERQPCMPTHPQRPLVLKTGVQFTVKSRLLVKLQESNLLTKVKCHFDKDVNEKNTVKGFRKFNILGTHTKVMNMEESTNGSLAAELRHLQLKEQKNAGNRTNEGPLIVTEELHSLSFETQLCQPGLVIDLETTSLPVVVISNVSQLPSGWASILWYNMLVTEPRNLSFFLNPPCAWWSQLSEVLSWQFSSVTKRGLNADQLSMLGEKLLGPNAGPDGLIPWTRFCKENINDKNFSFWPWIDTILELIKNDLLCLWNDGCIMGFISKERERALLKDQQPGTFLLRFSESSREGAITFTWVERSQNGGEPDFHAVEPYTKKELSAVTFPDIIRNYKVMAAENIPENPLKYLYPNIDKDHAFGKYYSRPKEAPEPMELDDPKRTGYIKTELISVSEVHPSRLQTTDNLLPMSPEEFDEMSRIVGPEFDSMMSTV

Chain of Tyrosine-protein kinase JAK2 (O60674 whole entry): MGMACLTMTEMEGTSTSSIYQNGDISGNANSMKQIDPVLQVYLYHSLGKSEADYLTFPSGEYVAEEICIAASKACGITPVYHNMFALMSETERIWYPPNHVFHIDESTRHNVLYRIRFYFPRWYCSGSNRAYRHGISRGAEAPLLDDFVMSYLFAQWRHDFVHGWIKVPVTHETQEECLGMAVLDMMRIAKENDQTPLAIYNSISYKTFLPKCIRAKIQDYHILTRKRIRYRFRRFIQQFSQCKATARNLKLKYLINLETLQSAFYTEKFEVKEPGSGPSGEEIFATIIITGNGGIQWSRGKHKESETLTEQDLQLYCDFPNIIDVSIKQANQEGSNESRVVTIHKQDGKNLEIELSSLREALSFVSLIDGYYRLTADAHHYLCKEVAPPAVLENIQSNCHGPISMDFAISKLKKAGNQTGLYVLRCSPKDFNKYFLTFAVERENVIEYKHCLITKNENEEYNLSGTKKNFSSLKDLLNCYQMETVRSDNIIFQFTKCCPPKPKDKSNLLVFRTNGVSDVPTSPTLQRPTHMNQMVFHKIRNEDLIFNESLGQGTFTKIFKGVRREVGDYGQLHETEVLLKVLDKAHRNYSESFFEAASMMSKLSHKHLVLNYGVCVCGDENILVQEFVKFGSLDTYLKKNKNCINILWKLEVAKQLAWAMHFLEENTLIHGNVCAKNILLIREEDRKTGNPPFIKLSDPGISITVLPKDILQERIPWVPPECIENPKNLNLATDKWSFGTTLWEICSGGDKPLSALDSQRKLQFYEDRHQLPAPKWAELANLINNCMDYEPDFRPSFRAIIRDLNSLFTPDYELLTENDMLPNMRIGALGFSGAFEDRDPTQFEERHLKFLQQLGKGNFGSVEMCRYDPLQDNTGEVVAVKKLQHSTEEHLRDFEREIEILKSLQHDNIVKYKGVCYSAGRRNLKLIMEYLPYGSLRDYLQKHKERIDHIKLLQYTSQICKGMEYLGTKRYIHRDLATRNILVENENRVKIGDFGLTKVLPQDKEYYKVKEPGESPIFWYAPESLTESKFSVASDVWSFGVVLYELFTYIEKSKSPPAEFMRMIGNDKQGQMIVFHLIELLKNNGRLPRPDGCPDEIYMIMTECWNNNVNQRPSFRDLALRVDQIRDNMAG
Chain of Signal transducer and activator of transcription 3 (Mus musculus) (P42227 whole entry): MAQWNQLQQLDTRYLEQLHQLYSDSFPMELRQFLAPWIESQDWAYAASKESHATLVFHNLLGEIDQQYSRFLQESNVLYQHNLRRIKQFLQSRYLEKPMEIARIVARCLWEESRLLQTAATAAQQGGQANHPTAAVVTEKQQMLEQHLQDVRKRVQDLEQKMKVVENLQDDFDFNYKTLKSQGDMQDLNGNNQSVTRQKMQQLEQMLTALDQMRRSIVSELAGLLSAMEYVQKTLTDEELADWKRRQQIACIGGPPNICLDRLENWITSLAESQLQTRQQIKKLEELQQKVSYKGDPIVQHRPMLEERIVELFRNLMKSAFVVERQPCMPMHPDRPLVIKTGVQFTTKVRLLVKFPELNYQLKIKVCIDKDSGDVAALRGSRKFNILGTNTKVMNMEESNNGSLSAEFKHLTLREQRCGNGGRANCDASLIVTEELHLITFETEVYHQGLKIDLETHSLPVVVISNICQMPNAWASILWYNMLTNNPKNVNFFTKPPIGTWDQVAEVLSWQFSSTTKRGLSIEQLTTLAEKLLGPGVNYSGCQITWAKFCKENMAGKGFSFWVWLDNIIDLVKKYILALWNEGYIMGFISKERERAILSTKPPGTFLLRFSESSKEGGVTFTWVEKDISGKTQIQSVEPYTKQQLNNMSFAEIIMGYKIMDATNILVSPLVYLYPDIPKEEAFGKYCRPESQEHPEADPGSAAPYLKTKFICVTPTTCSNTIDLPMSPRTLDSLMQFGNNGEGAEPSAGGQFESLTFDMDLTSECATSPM

**Q.** With `Cc1cnc(Nc2ccc3c(c2)CCN(C(=O)/C=C/CN(C)C)C3)nc1-c1cnn(C(C)C)c1` as the molecule, how does the Activity (SET-2 [1]) read?
**A.** The Activity was “Dose-dependent effect”.

**Q.** And the IC50 [2]?
**A.** The IC50 was 3 nM.

**Q.** And the IC50 [3]?
**A.** Its IC50 is 62 nM.

**Q.** And the Ratio IC50 [4]?
**A.** The Ratio IC50 was 14.

**Q.** What about the Ratio IC50 [5] of the same molecule?
**A.** Its Ratio IC50 is 20.7.

**Q.** And the IC50 (L02)?
**A.** Its IC50 is 7220 nM.

**Q.** What about the half-life [6] of the same molecule?
**A.** Its half-life is 108 min.

**Q.** And the CL/F [7]?
**A.** Its CL/F is 480 mL/min/kg.

**Q.** What about the Tmax [8] of the same molecule?
**A.** Its Tmax is 4.8 min.

**Q.** What about the inhibition in vivo at 15 mg/kg (SET-2 [9]) of the same molecule?
**A.** The inhibition in vivo at 15 mg/kg was 51.4%.

**Q.** And the inhibition in vivo at 60 mg/kg (SET-2 [10])?
**A.** Its inhibition in vivo at 60 mg/kg is 82.3%.

**Q.** And the Activity [11]?
**A.** Its Activity is “Toxic”.

**Q.** What about the Activity (SET-2 [12]) of the same molecule?
**A.** Its Activity is 0.35%.

**Q.** What about the Activity (SET-2 [13]) of the same molecule?
**A.** The Activity was 2.34%.

**Q.** What about the Activity (SET-2 [14]) of the same molecule?
**A.** Its Activity is 94.6%.

**Q.** What about the Activity (SET-2 [15]) of the same molecule?
**A.** Its Activity is 0.48%.

**Q.** And the Activity (SET-2 [16])?
**A.** Its Activity is 5.92%.

**Q.** And the Activity (SET-2 [17])?
**A.** The Activity was 49.33%.

**Q.** What about the Activity (SET-2 [18]) of the same molecule?
**A.** Its Activity is 9.12%.

**Q.** And the Activity (SET-2 [19])?
**A.** Its Activity is 23.03%.

**Q.** And the Activity (SET-2 [20])?
**A.** The Activity was 27.3%.

**Q.** What about the inhibition [21] of the same molecule?
**A.** Its inhibition is “inactive”.

**Q.** And the inhibition [22]?
**A.** The inhibition was “inactive”.

**Q.** And the inhibition [23]?
**A.** The inhibition was “inactive”.

**Q.** What about the inhibition [24] of the same molecule?
**A.** Its inhibition is “inactive”.

Source: ChEMBL document CHEMBL4715869, “N-(Pyrimidin-2-yl)-1,2,3,4-tetrahydroisoquinolin-6-amine Derivatives as Selective Janus Kinase 2 Inhibitors for the Treatment of Myeloproliferative Neoplasms” (J Med Chem, 2020)
